Data published in publication PMC10221029, “Photoprotection and Antiaging Activity of Extracts from Honeybush (Cyclopia sp.)—In Vitro Wound Healing and Inhibition of the Skin Extracellular Matrix Enzymes: Tyrosinase, Collagenase, Elastase and Hyaluronidase” (Pharmaceutics, 2023).

Molecular target: T1, Collagenase from Clostridium histolyticum
T1 construct: gene colG; ColG / ColH not distinguished
Assay: spectrophotometric FALGPA hydrolysis, […] nm
Type: biochemical
Conditions: substrate FALGPA 0.8 mM; 50 mM tricine pH 7.5, 400 mM NaCl, 10 mM CaCl2; 15 min pre-incubation, room temperature

CC1(C)CC[C@]2(C(=O)O)CC[C@]3(C)C(=CC[C@@H]4[C@@]5(C)CC[C@H](O)C(C)(C)[C@@H]5CC[C@]43C)[C@@H]2C1 [oleanolic acid]
Standard Oleanolic Acid *: 25.66 ± 0.39 µg/mL
